Data published in patent publication US9326972B2, “Use of phenylmethimazoles, methimazole derivatives, and tautomeric cyclic thiones for the treatment of autoimmune/inflammatory diseases associated with toll-like receptor overexpression” (Ohio University, priority 2004, dated 2016).
Marks after values point to notes of the source that are not given here.

Tests used:
ApoE−/− mice = assay: Atherosclerosis in ApoE−/− mice fed a high fat diet; type: in vivo, mouse; parameters: key to CORONARY AND MYOCARDIAL VESSELS INFLAMMATION / AORTIC INFLAMMATION: ++++ for severe; + for very mild
Experimental: C10 reduced vascular inflammation in ApoE−/− mice fed a high fat diet: C10 was given i.p. (1 mg/kg) every other day to mice for 8 weeks. Control mice received DMSO alone. Mice were sacrificed at 8 weeks and histopathology examined in different tissues as determined by hematoxylin and eosin staining. In FIG. 15, sections from the base of the aorta in C10 treated (FIG. 15, Panel A) and untreated mice (FIG. 15, Panel B) are presented as well as sections of the coronary artery vasculature in C10 treated (FIG. 15, Panel C) and untreated mice (FIG. 15, Panel D). Vessels in the myocardium were also compared in C10 treated and untreated mice. […] Similarly in Panel D, the picture is representative of long sections of the coronary arteries that were nearly fully occluded with plaque in untreated mice whereas in C10 treated mice (Panel C), coronary arteries were largely unobstructed. Further, even where lesions were evident the lumens of vessels remained patent. Vessels within the myocardium were obstructed by plaque in the absence of C10 but patent and nearly free of plaque in the mice treated with C10. Data are representative of multiple slides taken from multiple animals.
Sections of the coronary arteries and myocardium as well as the base of the aorta were compared in untreated mice vs. C10 treated mice both for extent of lesion, quality of lesion, overexpressed TLR4, overexpressed VCAM-1, and extent of inflammation and plaque. Lesions and observations were qualitatively evaluated using ++++ for severe to + for very mild. […] Evaluation was double blinded.
Experimental animals: Twenty female Apo E−/− mice (Jackson Laboratory), 5 weeks old and weighing 14.5 g (average weight), were divided in 4 groups: (1) animals treated with 10% DMSO; (2) animals treated orally with C-10 in DMSO (1 mg/kg body weight); (3) animals treated I/P with C-10 in DMSO (same dose); and (4) control animals without treatment.
The treatment was done every other day (8 week expt) or every day. The animals were fed on a Western-type diet (TD 88137 from Harlan, Teklan). […]

[1] = Solubility and storage stability of C10 solutions; type: physicochemical
Excerpt: In the studies described in Table 5, C10 was formulated in DMSO and administered i.p. DMSO was used due to the low solubility of C10 in aqueous environments but can have well documented independent effects (M. S. Ivanovic, et al., Toxicology Letters, 147:153-159 (2004))]. […] To circumvent these issues, we used a proprietary cyclodextrin (CD) excipient that is approved by the FDA for use in humans to make an aqueous formulation of C10. […] In a test using LPS-induced toxic shock, oral excipient-solubilized C10, stored in diluted form at 4° C. for 8 weeks, was as effective in preventing death as was freshly made C10 i.p. in DMSO at the same 1 mg/kg dose.

mice [2] = conditions: mouse, in vivo; cited from earlier work
Stat1 = assay: Activated Stat1 in kidney and lung lysates of LPS-treated mice (immunoblot); type: in vivo, mouse; conditions: LPS-treated mice of Table 5
Excerpt: In order to more definitively determine if LPS-induced IFN-β signaling and LPS-induced increases in IRF-1 and IP-10 in vivo might be attenuated by an effect of C10 treatment on Stat1 activation, protein phosphorylation levels of Stat1 in whole tissue lysates were examined in mice from Table 5. […] In contrast neither LPS nor C10 had any effect on total Stat1 in these tissues (FIG. 8, bottom blots). […] Based on literature studies described in immune cells and results we have described in nonimmune cells (FIGS. 4-6; Tables 2, 3), it is reasonable to state that C10 blocks Stat1/IRF-1 signals in vivo as well as in vitro, this is important in the therapy of toxic shock where these genes are not only involved but critical to disease expression. C10 therapy is thus important in reducing pathologic changes in multiple tissues whose organ failure is known to contribute to the signs and symptoms of toxic shock.
Immunoblot analysis of RAW 264.7 and mouse tissues: Nuclear and cytoplasmic extracts for RAW cells were prepared using NE-PER® extraction reagents (Pierce, Rockford, Ill.) in the presence of a protease inhibitor mixture (PMSF, leupeptin, and pepstatin A). […] Binding of HRP-conjugated goat anti-rabbit Ab (sc-2054; Santa Cruz Biotechnology, Inc., Santa Cruz, Calif.) was detected using the ECLplus Western Blotting Detection System (Amersham Biosciences, Piscataway, N.J.).

mice [3] = assay: Colitis model in mice (DSS); type: in vivo, mouse; conditions: 10 animals, 0.1 mg/kg, 14 days
[4] = C10 1 mg/kg every other day for 8 weeks

Cn1c(-c2ccccc2)cnc1S [Compound C10, 5-Phenylmethimazole]
AORTIC INFLAMMATION (ApoE−/− mice; [4]): +* | CORONARY AND MYOCARDIAL VESSELS INFLAMMATION (ApoE−/− mice; [4]): +* | weight gain (ApoE−/− mice; C10 orally and ip, 4 weeks): decreased | solubility in aqueous environments [1]: low | stability of C10 solubilized in DMSO and diluted to a working concentration [1]: not stable for prolonged periods of time | activity of C10 diluted in DMSO and stored in diluted form ([1]; stored at either 4° C. or −70° C., in vitro or in vivo): inactive | inflammatory response and survival in DSS induced colitis (mice [2]): suppress the inflammatory response and improve survival | activated (phosphorylated) Stat1 protein levels in kidney and lung (Stat1): reduced to basal | Survival % of Control (mice [3]; Ip freshly diluted in DMSO): 100% | Survival % of Control (mice [3]; Oral stored in excipient 1 week): 100%
